US11974989B2, “Therapeutic uses of glucokinase activators in combination with insulin or insulin analogs” (vTv Therapeutics LLC, priority 2018, dated 2024)
Where “and” joins values, the source holds several entries; their conditions need not be identical. Identical values can stand only once.

Legend:
Type in all cases: in vivo, human
[1] = Open-label weekly dose escalation study: pharmacokinetic data; conditions: 1200 mg group compared to the 800 mg group
Protocol: (§1) An open-label, weekly dose escalation study with up to 3 dose escalations was conducted. Five adult patients with type 1 diabetes (T1DM) who were using a continuous glucose monitoring (CGM) device and insulin delivered by continuous subcutaneous insulin infusion (CSII) were dosed with a once daily with a dose of 400, 800 or 1200 mg of {2-[3-cyclohexyl-3-(trans-4-propoxy-cyclohexyl)-ureido]-thiazol-5-ylsulfanyl}-acetic acid (UT-1) for seven days at each dose level.
(§2) The initial 7 days (days −7 to −1) of the study were used to obtain baseline laboratory samples and to record baseline insulin doses and blood glucose levels during a patient's usual insulin, dietary, and activity regimen. The once daily treatment dose of UT-1 was administered morning meal. Safety labs were collected on days −7, 1, 8, 15, 21 and 28. Insulin pump data and CGM data for each dosing period was collected on days 1, 8, 15, 21, and 28. Insulin was adjusted by a patient as required to maintain glycemic control. Data from day 3 to day 6 of each dosing period or baseline period was used in the analysis of the data.

adult patients with T1DM [2] = assay: Multi-center double-blind placebo-controlled 12-week study, adjunct to insulin: HbA1c, responder analysis, ketones, insulin usage
Protocol: (§3) A multi-center double-blind placebo-controlled study with a 2-week single-blind placebo run-in period to evaluate UT-1 as a potential adjunctive treatment to insulin therapy for T1DM was conducted. The study examined the response in 20 adult patients with T1DM who were using a continuous glucose monitoring (CGM) device and insulin delivered by continuous subcutaneous insulin infusion (CSII) dosed once daily with either placebo or 800 mg UT-1 for up to 12 weeks. The once daily treatment was administered with the morning meal. Safety and assessments labs were collected prior to the placebo-run in period, at Day 1 prior to dosing with blinded study medication, at weeks 2, 4, 6, 8, 12 and at approximately week 13. Insulin pump data and CGM data was collected from the single-blind placebo run-in period to the end of dosing. A quality of life and treatment satisfaction questionnaires were also used. Insulin was adjusted by patients as required to maintain glycemic control.
Patients in this study received insulin adjustments to optimize glucose levels. […] Of all study patients, there was a greater proportion of responders in the group treated with UT-1 (75%) than in the placebo group (9%) (p=0.006).

adult patients with T1DM [3] = assay: Multi-center double-blind placebo-controlled 12-week study: safety and tolerability; conditions: 800 mg once daily up to 12 weeks
Protocol: as §3

[4] = tested on: adult patients with type 1 diabetes (T1DM); assay: Open-label weekly dose escalation study: safety labs; conditions: 400, 800, 1200 mg once daily, 7 days each
Protocol: as §1, §2

[5] = tested on: adult patients with type 1 diabetes (T1DM); assay: Open-label weekly dose escalation study: insulin pump data (bolus and basal insulin dose); conditions: for mean value of bolus insulin dose per day: over subjects (FIG. 5), baseline 27.1 mean U/day; for Mean units of basal insulin units administered per day / Mean units of bolus insulin units administered per day: mean of days 3-6, one per subject 1-5
Protocol: as §1, §2

[6] = tested on: adult patients with type 1 diabetes (T1DM); assay: Open-label weekly dose escalation study: CGM blood glucose time in range; conditions: for median value of the percentage of time blood glucose levels were in the range of 70-180 mg/dL: median over subjects (FIG. 1), baseline 52.0%; for median value of the percentage of time blood glucose levels were greater than 180 mg/dL (hyperglycemia): median over subjects (FIG. 4), baseline 37%; for Percentage of time (using CGM) blood glucose level is in range of 70-180 mg/dL / Percentage of time (using CGM) blood glucose level is above 180 mg/dL / Percentage of time (using CGM) blood glucose level is below 54 mg/dL / Percentage of time (using CGM) blood glucose level is between 54 and 70 mg/dL: median of days 3-6, one per subject 1-5
Protocol: as §1, §2

CCCO[C@H]1CC[C@H](N(C(=O)Nc2ncc(SCC(=O)O)s2)C2CCCCC2)CC1 [UT-1, {2-[3-cyclohexyl-3-(trans-4-propoxy-cyclohexyl)-ureido]-thiazol-5-ylsulfanyl}-acetic acid]
concentrations of UT-1 (pharmacokinetic data) [1]: lower in 3 out of 5 subjects | mean difference in HbA1c in the UT-1 group relative to the placebo group (adult patients with T1DM [2]; 800 mg once daily, 12 weeks, p=0.03): 0.7% | ending HbA1c (adult patients with T1DM [2]; 800 mg once daily, at 12 weeks, n=8): 6.7-6.8% | mean reduction in HbA1c (adult patients with T1DM [2]; 800 mg once daily, at 12 weeks, n=8, baseline mean HbA1c 7.3%, statistically significant): 0.6% | insulin usage (trend) (adult patients with T1DM [2]; 800 mg once daily, up to 12 weeks): trends toward decreased insulin usage | patients with abnormal levels of metabolic ketones observed in plasma or urine (adult patients with T1DM [2]; 800 mg once daily, placebo 63%): 13% | proportion of treatment responders (adult patients with T1DM [2]; responder: decrease in HbA1c at Week 12, no abnormal lactate or metabolic ketones, no increased time in Level 2 hypoglycemia, placebo 9%, p=0.006): 75% | tolerability (adult patients with T1DM [3]; similar incidences of treatment-emergent adverse events overall and by system organ class): well tolerated | diabetic ketoacidosis or severe hypoglycemia reports (adult patients with T1DM [3]; whole study): no report of diabetic ketoacidosis or severe hypoglycemia | serious adverse events (adult patients with T1DM [3]; whole study): no serious adverse event | effect on liver function or plasma lipids [4]: No detrimental effect | mean value of bolus insulin dose per day ([5]; 400 mg dose): 25 mean U/day | mean value of bolus insulin dose per day ([5]; 800 mg dose): 20 mean U/day | Mean units of basal insulin units administered per day ([5]; UT-1 400 mg once daily): 23.9 mean U/day and 15.5 mean U/day and 29.3 mean U/day and 22.6 mean U/day | Mean units of bolus insulin units administered per day ([5]; UT-1 400 mg once daily): 22.6 mean U/day and 29.9 mean U/day and 25.5 mean U/day and 23.3 mean U/day | Mean units of basal insulin units administered per day ([5]; UT-1 800 mg once daily): 22.6 mean U/day and 15.3 mean U/day and 19.6 mean U/day and 29.8 mean U/day and 22.2 mean U/day | Mean units of bolus insulin units administered per day ([5]; UT-1 800 mg once daily): 17.6 mean U/day and 23.4 mean U/day and 22.5 mean U/day and 22 mean U/day and 15.8 mean U/day | Mean units of basal insulin units administered per day ([5]; UT-1 1200 mg once daily): 22.9 mean U/day and 13.9 mean U/day and 21.8 mean U/day and 30.5 mean U/day and 19.1 mean U/day | Mean units of bolus insulin units administered per day ([5]; UT-1 1200 mg once daily): 16.2 mean U/day and 23.8 mean U/day and 20.9 mean U/day and 28 mean U/day and 25.2 mean U/day | ratio of mean carbohydrate intake per day to mean bolus insulin dose per day ([5]; from baseline to 400 mg dose, and from 400 mg dose to 800 mg dose): increase | median value of the percentage of time blood glucose levels were in the range of 70-180 mg/dL ([6]; 400 mg dose): 67.9% | median value of the percentage of time blood glucose levels were greater than 180 mg/dL (hyperglycemia) ([6]; 400 mg dose): 30.92% | median value of the percentage of time blood glucose levels were in the range of 70-180 mg/dL ([6]; 800 mg dose): 75.7% | median value of the percentage of time blood glucose levels were greater than 180 mg/dL (hyperglycemia) ([6]; 800 mg dose): 20.46% | Percentage of time (using CGM) blood glucose level is in range of 70-180 mg/dL ([6]; UT-1 400 mg once daily for 7 days with CSII insulin): 69.3% and 56.3% and 69.6% and 67.9% and 56.8% | Percentage of time (using CGM) blood glucose level is above 180 mg/dL ([6]; UT-1 400 mg once daily): 20.91% and 42.54% and 22.49% and 30.92% and 36.99% | Percentage of time (using CGM) blood glucose level is below 54 mg/dL ([6]; UT-1 400 mg once daily): 0% (3×) and 2.42% and 1.88% | Percentage of time (using CGM) blood glucose level is between 54 and 70 mg/dL ([6]; UT-1 400 mg once daily): 4.2% and 0.86% and 5.54% and 0.54% and 4.97% | Percentage of time (using CGM) blood glucose level is in range of 70-180 mg/dL ([6]; UT-1 800 mg once daily for 7 days with CSII insulin): 44.3% and 65.4% and 85.9% and 82.7% and 75.7% | Percentage of time (using CGM) blood glucose level is above 180 mg/dL ([6]; UT-1 800 mg once daily): 50.66% and 34.56% and 14.07% and 16.82% and 20.46% | Percentage of time (using CGM) blood glucose level is below 54 mg/dL ([6]; UT-1 800 mg once daily): 1.38% and 0% (4×) | Percentage of time (using CGM) blood glucose level is between 54 and 70 mg/dL ([6]; UT-1 800 mg once daily): 3.27% and 0% (2×) and 0.17% and 0.69% | Percentage of time (using CGM) blood glucose level is in range of 70-180 mg/dL ([6]; UT-1 1200 mg once daily for 7 days with CSII insulin): 52.9% and 48.8% and 80.9% and 69.6% and 59.3% | Percentage of time (using CGM) blood glucose level is above 180 mg/dL ([6]; UT-1 1200 mg once daily): 42.24% and 50.68% and 18.79% and 24.62% and 30.09% | Percentage of time (using CGM) blood glucose level is below 54 mg/dL ([6]; UT-1 1200 mg once daily): 0% (4×) and 3.84% | Percentage of time (using CGM) blood glucose level is between 54 and 70 mg/dL ([6]; UT-1 1200 mg once daily): 0.17% (2×) and 0.86% and 1.28% and 5.84% | glycemic control and insulin dose (trend) ([6]; dose escalation 400, 800, 1200 mg once daily): trends toward improved glycemic control while reducing insulin dose
